Measurements taken from BindingDB's records for patent US12338251 (Teligene US, 2025).

Molecular target: Cytochrome P450 3A4 (Homo sapiens, UniProt P08684)
Assay: CYP Inhibition Assay
From the text: The final concentrations of DMSO and acetonitrile were equal to or less than 0.1%.

Sequence of Cytochrome P450 3A4 (P08684 whole entry): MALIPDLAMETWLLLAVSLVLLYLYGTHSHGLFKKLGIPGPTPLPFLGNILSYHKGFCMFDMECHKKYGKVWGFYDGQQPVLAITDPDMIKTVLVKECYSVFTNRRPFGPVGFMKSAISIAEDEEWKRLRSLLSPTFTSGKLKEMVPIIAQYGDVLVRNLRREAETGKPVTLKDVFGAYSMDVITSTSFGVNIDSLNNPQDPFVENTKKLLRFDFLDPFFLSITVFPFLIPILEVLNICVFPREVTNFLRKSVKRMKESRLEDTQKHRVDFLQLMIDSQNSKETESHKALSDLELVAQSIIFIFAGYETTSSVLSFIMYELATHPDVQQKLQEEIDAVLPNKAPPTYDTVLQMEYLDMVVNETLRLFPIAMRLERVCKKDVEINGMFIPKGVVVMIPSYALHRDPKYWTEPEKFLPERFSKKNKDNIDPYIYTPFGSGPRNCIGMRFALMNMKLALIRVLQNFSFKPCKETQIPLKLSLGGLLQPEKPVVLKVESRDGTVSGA

SMILES: CC(=O)CCC(=O)Nc1ncc2cc1O[C@H](C)c1cc(F)ccc1C(=O)N(C)Cc1nn(C)c(C#N)c1-2 [US12338251, Compound 3]
- IC50: 279 µM
